Reference: PubChem BioAssay (NCI)
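Test compounds were applied to cells in 96-well plates for 48 hours at 5 doses. TGI denotes the concentration required for complete inhibition of growth.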

Legend:
Assay in all cases: growth of human tumour cells (NCI), 48 h
786-0 renal = tested on: 786-0 renal
A549 NSCLC = tested on: A549 NSCLC
ACHN renal = tested on: ACHN renal
COLO 205 colon = tested on: COLO 205 colon
DMS 114 small cell lung = tested on: DMS 114 small cell lung
DMS 273 small cell lung = tested on: DMS 273 small cell lung
EKVX NSCLC = tested on: EKVX NSCLC
HCC-2998 colon = tested on: HCC-2998 colon
HCT-116 colon = tested on: HCT-116 colon
HCT-15 colon = tested on: HCT-15 colon
HOP-92 NSCLC = tested on: HOP-92 NSCLC
HT29 colon = tested on: HT29 colon
IGROV1 ovarian = tested on: IGROV1 ovarian
KM12 colon = tested on: KM12 colon
KM20L2 colon = tested on: KM20L2 colon
LXFL 529 NSCLC = tested on: LXFL 529 NSCLC
M19-MEL melanoma = tested on: M19-MEL melanoma
MALME-3M melanoma = tested on: MALME-3M melanoma
NCI-H226 lung = tested on: NCI-H226 lung
NCI-H23 lung = tested on: NCI-H23 lung
OVCAR-3 ovarian = tested on: OVCAR-3 ovarian
OVCAR-5 ovarian = tested on: OVCAR-5 ovarian
OVCAR-8 ovarian = tested on: OVCAR-8 ovarian
RXF 393 renal = tested on: RXF 393 renal
SF-268 CNS = tested on: SF-268 CNS
SF-295 CNS = tested on: SF-295 CNS
SF-539 CNS = tested on: SF-539 CNS
SK-MEL-2 melanoma = tested on: SK-MEL-2 melanoma
SK-MEL-28 melanoma = tested on: SK-MEL-28 melanoma
SK-MEL-5 melanoma = tested on: SK-MEL-5 melanoma
SK-OV-3 ovarian = tested on: SK-OV-3 ovarian
SN12C renal = tested on: SN12C renal
SNB-19 CNS = tested on: SNB-19 CNS
SNB-75 CNS = tested on: SNB-75 CNS
SNB-78 CNS = tested on: SNB-78 CNS
SW-620 colon = tested on: SW-620 colon
TK-10 renal = tested on: TK-10 renal
U251 CNS = tested on: U251 CNS
UACC-257 melanoma = tested on: UACC-257 melanoma
UACC-62 melanoma = tested on: UACC-62 melanoma
UO-31 renal = tested on: UO-31 renal
A498 renal = tested on: A498 renal
BT-549 breast = tested on: BT-549 breast
CAKI-1 renal = tested on: CAKI-1 renal
CCRF-CEM leukemia = tested on: CCRF-CEM leukemia
DU-145 prostate = tested on: DU-145 prostate
HL-60(TB) leukemia = tested on: HL-60(TB) leukemia
HOP-62 NSCLC = tested on: HOP-62 NSCLC
HS 578T breast = tested on: HS 578T breast
K-562 leukemia = tested on: K-562 leukemia
LOX IMVI melanoma = tested on: LOX IMVI melanoma
M14 melanoma = tested on: M14 melanoma
MCF7 breast = tested on: MCF7 breast
MDA-MB-231 breast = tested on: MDA-MB-231 breast
MDA-MB-435 = tested on: MDA-MB-435
MDA-N = tested on: MDA-N
MOLT-4 leukemia = tested on: MOLT-4 leukemia
NCI-H460 lung = tested on: NCI-H460 lung
NCI-H522 lung = tested on: NCI-H522 lung
NCI/ADR-RES ovarian = tested on: NCI/ADR-RES ovarian
OVCAR-4 ovarian = tested on: OVCAR-4 ovarian
PC-3 prostate = tested on: PC-3 prostate
RPMI-8226 leukemia = tested on: RPMI-8226 leukemia
SR leukemia = tested on: SR leukemia
T-47D breast = tested on: T-47D breast

Question: Which results are given for `COc1ccc(-c2cc(Cc3cccs3)c(=O)[nH]n2)cc1`?
Answer: TGI (786-0 renal): > 100 µM; TGI (A549 NSCLC): > 100 µM; TGI (ACHN renal): > 100 µM; TGI (COLO 205 colon): > 100 µM; TGI (DMS 114 small cell lung): > 100 µM; TGI (DMS 273 small cell lung): > 100 µM; TGI (EKVX NSCLC): > 100 µM; TGI (HCC-2998 colon): > 100 µM; TGI (HCT-116 colon): > 100 µM; TGI (HCT-15 colon): > 100 µM; TGI (HOP-92 NSCLC): > 100 µM; TGI (HT29 colon): > 100 µM; TGI (IGROV1 ovarian): > 100 µM; TGI (KM12 colon): > 100 µM; TGI (KM20L2 colon): > 100 µM; TGI (LXFL 529 NSCLC): > 100 µM; TGI (M19-MEL melanoma): > 100 µM; TGI (MALME-3M melanoma): > 100 µM; TGI (NCI-H226 lung): > 100 µM; TGI (NCI-H23 lung): > 100 µM; TGI (OVCAR-3 ovarian): > 100 µM; TGI (OVCAR-5 ovarian): > 100 µM; TGI (OVCAR-8 ovarian): > 100 µM; TGI (RXF 393 renal): > 100 µM; TGI (SF-268 CNS): > 100 µM; TGI (SF-295 CNS): > 100 µM; TGI (SF-539 CNS): > 100 µM; TGI (SK-MEL-2 melanoma): > 100 µM; TGI (SK-MEL-28 melanoma): > 100 µM; TGI (SK-MEL-5 melanoma): 49.5 µM; TGI (SK-OV-3 ovarian): > 100 µM; TGI (SN12C renal): > 100 µM; TGI (SNB-19 CNS): > 100 µM; TGI (SNB-75 CNS): > 100 µM; TGI (SNB-78 CNS): > 100 µM; TGI (SW-620 colon): > 100 µM; TGI (TK-10 renal): > 100 µM; TGI (U251 CNS): > 100 µM; TGI (UACC-257 melanoma): > 100 µM; TGI (UACC-62 melanoma): > 100 µM; TGI (UO-31 renal): > 100 µM

Question: How did the TGI (786-0 renal) turn out when `C[C@]12CC[C@@H]3c4cc(OCC(F)(F)F)c(O)cc4CC[C@H]3[C@@H]1CC[C@@H]2O` was run?
Answer: 18.1 µM

Question: And the TGI (A498 renal)?
Answer: 20.7 µM

Question: What about the TGI (A549 NSCLC) of the same molecule?
Answer: 20.6 µM

Question: What about the TGI (ACHN renal) of the same molecule?
Answer: 47.1 µM

Question: And the TGI (BT-549 breast)?
Answer: 89.6 µM

Question: What about the TGI (CAKI-1 renal) of the same molecule?
Answer: 29.9 µM

Question: What about the TGI (CCRF-CEM leukemia) of the same molecule?
Answer: 15.2 µM

Question: And the TGI (COLO 205 colon)?
Answer: 28.2 µM

Question: And the TGI (DU-145 prostate)?
Answer: 29.4 µM

Question: And the TGI (EKVX NSCLC)?
Answer: 30.7 µM

Question: And the TGI (HCC-2998 colon)?
Answer: 16.9 µM

Question: And the TGI (HCT-116 colon)?
Answer: 16.7 µM

Question: And the TGI (HCT-15 colon)?
Answer: 15.2 µM

Question: And the TGI (HL-60(TB) leukemia)?
Answer: 10.7 µM

Question: And the TGI (HOP-62 NSCLC)?
Answer: 26.7 µM

Question: What about the TGI (HOP-92 NSCLC) of the same molecule?
Answer: 21.8 µM

Question: And the TGI (HS 578T breast)?
Answer: 23 µM

Question: And the TGI (HT29 colon)?
Answer: 15.3 µM

Question: And the TGI (IGROV1 ovarian)?
Answer: 23.8 µM

Question: What about the TGI (K-562 leukemia) of the same molecule?
Answer: 13.5 µM

Question: What about the TGI (KM12 colon) of the same molecule?
Answer: 12.7 µM

Question: And the TGI (LOX IMVI melanoma)?
Answer: 17.1 µM

Question: What about the TGI (M14 melanoma) of the same molecule?
Answer: 16.8 µM

Question: What about the TGI (MALME-3M melanoma) of the same molecule?
Answer: 19 µM

Question: What about the TGI (MCF7 breast) of the same molecule?
Answer: 17.3 µM

Question: What about the TGI (MDA-MB-231 breast) of the same molecule?
Answer: 3.11 µM

Question: What about the TGI (MDA-MB-435) of the same molecule?
Answer: 1.1 µM

Question: And the TGI (MDA-N)?
Answer: 1.29 µM

Question: And the TGI (MOLT-4 leukemia)?
Answer: 18.9 µM

Question: What about the TGI (NCI-H226 lung) of the same molecule?
Answer: 24.7 µM

Question: What about the TGI (NCI-H23 lung) of the same molecule?
Answer: 19.3 µM

Question: What about the TGI (NCI-H460 lung) of the same molecule?
Answer: 15.5 µM

Question: And the TGI (NCI-H522 lung)?
Answer: 3.88 µM

Question: What about the TGI (NCI/ADR-RES ovarian) of the same molecule?
Answer: 36.8 µM

Question: What about the TGI (OVCAR-3 ovarian) of the same molecule?
Answer: 12.9 µM

Question: What about the TGI (OVCAR-4 ovarian) of the same molecule?
Answer: > 53.1 µM

Question: And the TGI (OVCAR-5 ovarian)?
Answer: 37.7 µM

Question: And the TGI (OVCAR-8 ovarian)?
Answer: 34.3 µM

Question: What about the TGI (PC-3 prostate) of the same molecule?
Answer: 13.8 µM

Question: And the TGI (RPMI-8226 leukemia)?
Answer: 23.1 µM

Question: And the TGI (RXF 393 renal)?
Answer: 8.68 µM

Question: And the TGI (SF-268 CNS)?
Answer: 35.2 µM

Question: And the TGI (SF-295 CNS)?
Answer: 11.6 µM

Question: And the TGI (SF-539 CNS)?
Answer: 7.27 µM

Question: And the TGI (SK-MEL-2 melanoma)?
Answer: 18.5 µM

Question: And the TGI (SK-MEL-28 melanoma)?
Answer: 26.2 µM

Question: What about the TGI (SK-MEL-5 melanoma) of the same molecule?
Answer: 15.4 µM

Question: What about the TGI (SK-OV-3 ovarian) of the same molecule?
Answer: 16.8 µM

Question: What about the TGI (SN12C renal) of the same molecule?
Answer: 15.5 µM

Question: And the TGI (SNB-19 CNS)?
Answer: 18.1 µM

Question: And the TGI (SNB-75 CNS)?
Answer: 13.2 µM

Question: What about the TGI (SR leukemia) of the same molecule?
Answer: 2.47 µM

Question: What about the TGI (SW-620 colon) of the same molecule?
Answer: 9.03 µM

Question: And the TGI (T-47D breast)?
Answer: 49.5 µM

Question: And the TGI (TK-10 renal)?
Answer: 40.4 µM

Question: And the TGI (U251 CNS)?
Answer: 18.3 µM

Question: And the TGI (UACC-257 melanoma)?
Answer: 21.4 µM

Question: What about the TGI (UACC-62 melanoma) of the same molecule?
Answer: 17.3 µM

Question: What about the TGI (UO-31 renal) of the same molecule?
Answer: 22.3 µM
